# Measurements published in BindingDB's records for patent US20250346564 (ARase Therapeutics, 2025).
# Molecular target: Poly(ADP-ribose) glycohydrolase (Homo sapiens, UniProt Q86W56)
# Test: Inhibition of PARG TEMU Assay
# Method: The ability of the compounds of the Examples to inhibit PARG activity in 4. (trifluoromethyl)umbelliferone (TFMU) assay was determined as described below. PARG inhibitors were added into 384 well plate for a 10-point dose response curve at 1:3 dilutions. TFMU PARG substrate and PARG (250 pM or 2 nM) were then added to the plate to initiate enzymatic reaction. After incubation with the reagent, […] was read. IC50 values were calculated using set control points for 100% inhibition as no enzyme and 0% inhibition 250 pM or 2 nM of PARG enzyme.
# Sequence of Poly(ADP-ribose) glycohydrolase (Q86W56 whole entry): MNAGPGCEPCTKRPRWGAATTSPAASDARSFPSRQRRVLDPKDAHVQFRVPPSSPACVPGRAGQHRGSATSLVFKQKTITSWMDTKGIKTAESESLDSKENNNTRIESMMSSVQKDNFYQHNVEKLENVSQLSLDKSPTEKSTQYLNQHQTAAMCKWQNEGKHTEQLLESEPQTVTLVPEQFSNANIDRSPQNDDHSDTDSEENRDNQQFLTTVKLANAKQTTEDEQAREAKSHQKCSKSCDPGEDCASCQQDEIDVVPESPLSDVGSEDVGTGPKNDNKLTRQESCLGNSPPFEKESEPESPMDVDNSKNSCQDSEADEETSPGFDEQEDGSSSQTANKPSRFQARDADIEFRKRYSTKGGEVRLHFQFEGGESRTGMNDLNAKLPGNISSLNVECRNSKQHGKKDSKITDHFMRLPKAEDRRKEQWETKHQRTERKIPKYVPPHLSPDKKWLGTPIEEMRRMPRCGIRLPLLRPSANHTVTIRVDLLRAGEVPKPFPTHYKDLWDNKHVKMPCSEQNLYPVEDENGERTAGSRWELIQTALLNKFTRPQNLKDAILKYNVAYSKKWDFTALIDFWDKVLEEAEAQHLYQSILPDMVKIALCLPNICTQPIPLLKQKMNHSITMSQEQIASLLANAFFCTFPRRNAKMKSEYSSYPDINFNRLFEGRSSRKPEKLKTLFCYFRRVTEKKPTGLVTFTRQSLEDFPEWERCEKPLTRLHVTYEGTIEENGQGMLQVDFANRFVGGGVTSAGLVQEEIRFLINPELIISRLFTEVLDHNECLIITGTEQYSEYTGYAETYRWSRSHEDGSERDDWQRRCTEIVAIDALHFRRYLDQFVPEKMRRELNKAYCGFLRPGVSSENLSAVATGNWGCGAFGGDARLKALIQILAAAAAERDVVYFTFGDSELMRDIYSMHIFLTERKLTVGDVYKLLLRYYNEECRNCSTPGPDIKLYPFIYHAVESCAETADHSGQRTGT
row,IC50 [nM],Structure (SMILES)
1,> 5000,"CC[C@@H]1C[C@]1(C)NS(=O)(=O)c1ccc2c(c1)c(=O)n(CC)c(=O)n2CC [US20250346564, Example 13A]"
2,< 50,"O=C(N1CCCC1)N1CCN(c2cc(S(=O)(=O)NC3(CF)COC3)cc3c2cnn3-c2nnc(C(F)F)s2)CC1 [US20250346564, Example 36]"
3,< 50,"CC1(NS(=O)(=O)c2cc(N3CCN(C(=O)N4CCCC4)CC3)c3cnn(-c4nnc(C(F)F)s4)c3c2)COC1 [US20250346564, Example 35]"
